In one series the test system is Hepatitis B virus. As to the kind of experiment: Antiviral activity against HBV. It is filed as functional, organism-based.
Series [1] can be described thus: Inhibition of HIV1 integrase. Further details: species or system Human immunodeficiency virus 1.
For series [2], the system named is Human immunodeficiency virus. The series is described as follows: Antiviral activity against HIV infected in human H9 cells. The conditions noted are these: Human immunodeficiency virus 1, H9; read-out: EC50. It is filed as functional, organism-based.
A short description of series [3]: Therapeutic index, ratio of IC50 for cytotoxicity against human H9 cells to EC50 for antiviral activity against HIV infected in H9 cells. It is filed as toxicity, cell-based. Particulars: read-out: Ratio IC50/EC50.
The next series concerns H9. As to the kind of experiment: Cytotoxicity against human H9 cells. It is filed as functional, cell-based.
Another series concerns Semliki Forest virus. The series is described as follows: Antiviral activity against SFV. It is filed as functional, organism-based.
Series [4] concerns Chikungunya virus. As to the kind of experiment: Antiviral activity against CHIKV virus by CHIKV-Rluc assay. It is filed as functional, organism-based.
The subject of series [5] is Human alphaherpesvirus 1. As to the kind of experiment: Antiviral activity against Herpes simplex virus 1. It is filed as functional, organism-based.
The nature of series [6]: Cytotoxicity against African green monkey Vero cells. It is filed as toxicity, cell-based. Particulars: chlorocebus sabaeus, read-out: CD50 (the source's name).
For series [7], the system named is Human alphaherpesvirus 1. As to the kind of experiment: Antiviral activity against Herpes simplex virus 1 assessed as reduction in number of plaques at 0.12 mg/ml relative to control. It is filed as functional. Further details: scale not given: the % may be the effect or the level left.
The subject of another series is Human alphaherpesvirus 2. As to the kind of experiment: Antiviral activity against Herpes simplex virus 2. It is filed as functional, organism-based.
The subject of the next series is Herpesviridae sp. As to the kind of experiment: Antiviral activity against Kaposi's sarcoma-associated herpesvirus. It is filed as functional, organism-based.
The test system of series [8] is Chikungunya virus. As to the kind of experiment: Antiviral activity against CHIKV. It is filed as functional, organism-based.
Series [9] has as its system Hepatitis C virus. The series is described as follows: Antiviral activity against HCV subtype 1b in Huh-5-2 cells. It is filed as functional, organism-based, Hepacivirus hominis.
The subject of series [10] is Hepatitis C virus. As to the kind of experiment: Antiviral activity against HCV assessed as inhibition of RNA replication. It is filed as functional, organism-based, Hepacivirus hominis.
Series [11] has as its system Hepatitis C virus. As to the kind of experiment: Antiviral activity against HCV assessed as inhibition of HCV RNA replication at 5.0 uM relative to control. It is filed as functional, Hepacivirus hominis. Set-up: scale not given: the % may be the effect or the level left.
Series [12] relates to Human alphaherpesvirus 1. As to the kind of experiment: Antiviral activity against Herpes simplex virus 1 assessed as inhibition rate at 5 ug/ml relative to control. It is filed as functional.
In series [13] the test system is Human alphaherpesvirus 1. As to the kind of experiment: Antiviral activity against Herpes simplex virus 1 assessed as inhibition rate at 10 ug/ml relative to control. It is filed as functional.
Series [14] deals with Human alphaherpesvirus 1. As to the kind of experiment: Antiviral activity against Herpes simplex virus 1 assessed as inhibition rate at 2.5 ug/ml relative to control. It is filed as functional.
A short description of series [15]: Selectivity index, ratio of CC50 for cytotoxicity against human Ava5 cells to EC50 for antiviral activity against HCV. The conditions noted are these: read-out: Ratio CC50/EC50. It is filed as toxicity, cell-based.

In brackets after ≈: the same amount, converted by molar mass.

The IC50 is the concentration that inhibits the measured activity by half. In the series on Hepatitis B virus, `COc1c(OC/C=C(\C)CCC=C(C)C)ccc2ccc(=O)oc12` [COLLININ] returned an IC50 of 17.1 µg/mL (≈ 52.1 µM).
Consider `COc1ccc(-c2c3c4cc(OC)c(OS(=O)(=O)O)cc4oc(=O)c3n3ccc4cc(OC)c(OC)cc4c23)cc1O`, for which the IC50 in [1] amounted to 16 µM.
In general, EC50 refers to the concentration at which the effect is half-maximal. Consider `CC(C)=CCOc1c2occc2cc2ccc(=O)oc12` [PENTOSALEN], for which the concentration giving a half-maximal response (EC50) in series [2] is below 0.1 µg/mL. Besides, in series [3], the selectivity ratio was above 1000. For the same compound, the IC50 in the series with H9 was above 100 µg/mL.
In the case of `CCN(CC)c1ccc2cc(-c3nc4ccccc4n3C)c(=O)oc2c1`, the IC50 amounted to 0.4 µM with Semliki Forest virus and 6.4 µM in the series on Chikungunya virus [4].
In the series with Human alphaherpesvirus 1 [5], `O=C(COc1cc(=O)oc2ccccc12)NN1C(=O)CSC1c1ccc(Cl)cc1` (configuration not stated) gave an MIC of 120 µg/mL (≈ 279 µM). Besides, in series [6], the CC50 stood at 20 µg/mL (≈ 46.4 µM). Also, the Activity in the series on Human alphaherpesvirus 1 [7] amounted to 30%.
As to `COC1=CC(=O)c2cc(C)cc(-c3c(OC)cc(OC)c4ccc(=O)oc34)c2C1=O`, the EC50 with Human alphaherpesvirus 2 and in the series on Human alphaherpesvirus 1 [5] was 10 µg/mL (≈ 24.6 µM) each time.
In the series with Herpesviridae sp., `C=CC(C)(C)c1cc2cc3c(cc2oc1=O)OC(C(C)(C)OC(C)=O)C3` (configuration not stated) [RUTAMARIN] displayed a half-maximal effective concentration (EC50) of 1.62 µM.
`CCN(CC)c1ccc2cc(C(=O)c3ccsc3)c(=O)oc2c1` registered an IC50 with Chikungunya virus [8] of 5.1 µM.
In the series on Hepatitis C virus [9], `O=c1oc2ccc(Br)cc2cc1CSc1ncc[nH]1` had an EC50 of 5.1 µM.
On to `CC(=O)OC[C@H]1O[C@@H](n2c(SCc3cc4cc(Br)ccc4oc3=O)nc3ccccc32)[C@H](OC(C)=O)[C@@H](OC(C)=O)[C@@H]1OC(C)=O`, for which the EC50 in the series with Hepatitis C virus [10] stood at 4.1 µM. Also, in the series with Hepatitis C virus [11], the Activity turned out to be 90%.
What is called inhibition is the share of the control response that was lost under treatment. `CC(=O)O[C@@H]1CC[C@]2(C)[C@H](CC[C@](C)(O)[C@@H]2COc2ccc3ccc(=O)oc3c2)C1(C)C`: the inhibition at 5 µg/mL with Human alphaherpesvirus 1 [12] turned out to be 80%. Also, in the series with Human alphaherpesvirus 1 [13], the inhibition at 10 µg/mL is 98%. Moreover, the inhibition at 2.5 µg/mL in the series with Human alphaherpesvirus 1 [14] came to 65%. In the series with Human alphaherpesvirus 1 [5], this compound displayed an EC50 of 38 µg/mL (≈ 85.9 µM).
In the case of `COc1cc(NCc2cc3ccccc3oc2=O)cc(OC)c1OC`, the selectivity ratio in [15] was 10.

The values above are taken from ChEMBL document CHEMBL5257032, “Therapeutic potential of coumarins as antiviral agents” (Eur J Med Chem, 2016).
